How the values were obtained:
Assay in all cases: relative viability (nuclei count vs DMSO), 5 days (fraction); higher = more cells survive
[1] = compound: Cn1cc(-c2cnn3c(N)c(Br)c([C@@H]4CCCNC4)nc23)cn1 + C[C@@H](Oc1cc(-c2cnn(C3CCNCC3)c2)cnc1N)c1c(Cl)ccc(F)c1Cl [Crizotinib] (partner 1 µM)
In short: (§1)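 The day after seeding in 1536-well plates, lung cancer cell lines were treated by pin tool with a single drug, or with a fixed anchor-drug dose together with five library-drug doses (not always all listed) in √10 steps. After 5 days, a combined fix-and-stain solution (final 0.05% Triton X-100, 1% formaldehyde, 1 ug/ml Hoechst) was added. Nuclei counted on 4× images gave relative viability as treated counts over vehicle counts, reported as the median of duplicate plates.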

[2] = compound: Cn1cc(-c2cnn3c(N)c(Br)c([C@@H]4CCCNC4)nc23)cn1 + O=C(CCCCCCC(=O)Nc1ccccc1)NO [Vorinostat] (partner 1 µM)
In short: as §1

[3] = compound: Cn1cc(-c2cnn3c(N)c(Br)c([C@@H]4CCCNC4)nc23)cn1 + CC1(C)CCC(c2ccc(Cl)cc2)=C(CN2CCN(c3ccc(C(=O)NS(=O)(=O)c4ccc(N[C@H](CCN5CCOCC5)CSc5ccccc5)c(S(=O)(=O)C(F)(F)F)c4)cc3)CC2)C1 [Navitoclax] (partner 0.5 µM)
In short: as §1

[4] = compound: Cn1cc(-c2cnn3c(N)c(Br)c([C@@H]4CCCNC4)nc23)cn1 + Cc1cc(Nc2cc(N3CCN(C)CC3)nc(Sc3ccc(NC(=O)C4CC4)cc3)n2)n[nH]1 [Tozasertib] (partner 0.1 µM)
In short: as §1

PC-14
relative viability ([1]; first compound 0.05 µM): 0.95 | relative viability ([1]; first compound 0.1581 µM): 1.06 | relative viability ([1]; first compound 0.5 µM): 1.01 | relative viability ([1]; first compound 1.581 µM): 0.83 | relative viability ([1]; first compound 5 µM): 0.386 | relative viability ([2]; first compound 0.05 µM): 0.752 | relative viability ([2]; first compound 0.1581 µM): 0.601 | relative viability ([2]; first compound 0.5 µM): 0.527 | relative viability ([2]; first compound 1.581 µM): 0.223 | relative viability ([2]; first compound 5 µM): 0.117 | relative viability ([3]; first compound 0.05 µM): 1.06 | relative viability ([3]; first compound 0.1581 µM): 1.14 | relative viability ([3]; first compound 0.5 µM): 0.924 | relative viability ([3]; first compound 1.581 µM): 0.69 | relative viability ([3]; first compound 5 µM): 0.444 | relative viability ([4]; first compound 0.05 µM): 0.634 | relative viability ([4]; first compound 0.1581 µM): 0.458 | relative viability ([4]; first compound 0.5 µM): 0.594 | relative viability ([4]; first compound 1.581 µM): 0.438 | relative viability ([4]; first compound 5 µM): 0.274

A-427
relative viability ([1]; first compound 0.05 µM): 0.938 | relative viability ([1]; first compound 0.1581 µM): 1.02 | relative viability ([1]; first compound 0.5 µM): 0.922 | relative viability ([1]; first compound 1.581 µM): 0.725 | relative viability ([1]; first compound 5 µM): 0.566 | relative viability ([2]; first compound 0.05 µM): 0.817 | relative viability ([2]; first compound 0.1581 µM): 0.915 | relative viability ([2]; first compound 0.5 µM): 0.843 | relative viability ([2]; first compound 1.581 µM): 0.816 | relative viability ([2]; first compound 5 µM): 0.406 | relative viability ([3]; first compound 0.05 µM): 1.06 | relative viability ([3]; first compound 0.1581 µM): 1 | relative viability ([3]; first compound 0.5 µM): 0.9 | relative viability ([3]; first compound 1.581 µM): 0.953 | relative viability ([3]; first compound 5 µM): 0.733 | relative viability ([4]; first compound 0.05 µM): 0.185 | relative viability ([4]; first compound 0.1581 µM): 0.246 | relative viability ([4]; first compound 0.5 µM): 0.206 | relative viability ([4]; first compound 1.581 µM): 0.192 | relative viability ([4]; first compound 5 µM): 0.154

H3255
relative viability ([1]; first compound 0.05 µM): 0.799 | relative viability ([1]; first compound 0.1581 µM): 0.852 | relative viability ([1]; first compound 0.5 µM): 0.942 | relative viability ([1]; first compound 1.581 µM): 0.729 | relative viability ([1]; first compound 5 µM): 0.5 | relative viability ([2]; first compound 0.05 µM): 0.738 | relative viability ([2]; first compound 0.1581 µM): 0.872 | relative viability ([2]; first compound 0.5 µM): 0.914 | relative viability ([2]; first compound 1.581 µM): 0.746 | relative viability ([2]; first compound 5 µM): 0.411 | relative viability ([3]; first compound 0.05 µM): 0.561 | relative viability ([3]; first compound 0.1581 µM): 0.507 | relative viability ([3]; first compound 0.5 µM): 0.379 | relative viability ([3]; first compound 1.581 µM): 0.531 | relative viability ([3]; first compound 5 µM): 0.29 | relative viability ([4]; first compound 0.05 µM): 0.614 | relative viability ([4]; first compound 0.1581 µM): 0.569 | relative viability ([4]; first compound 0.5 µM): 0.727 | relative viability ([4]; first compound 1.581 µM): 0.224 | relative viability ([4]; first compound 5 µM): 0.447

HCC-44
relative viability ([1]; first compound 0.05 µM): 0.906 | relative viability ([1]; first compound 0.1581 µM): 1.02 | relative viability ([1]; first compound 0.5 µM): 0.913 | relative viability ([1]; first compound 1.581 µM): 0.86 | relative viability ([1]; first compound 5 µM): 0.789 | relative viability ([2]; first compound 0.05 µM): 1.08 | relative viability ([2]; first compound 0.1581 µM): 1.13 | relative viability ([2]; first compound 0.5 µM): 1.22 | relative viability ([2]; first compound 1.581 µM): 1.08 | relative viability ([2]; first compound 5 µM): 1.12 | relative viability ([3]; first compound 0.05 µM): 0.94 | relative viability ([3]; first compound 0.1581 µM): 1.05 | relative viability ([3]; first compound 0.5 µM): 1.23 | relative viability ([3]; first compound 1.581 µM): 0.916 | relative viability ([3]; first compound 5 µM): 1.18 | relative viability ([4]; first compound 0.1581 µM): 0.875 | relative viability ([4]; first compound 0.5 µM): 1.12 | relative viability ([4]; first compound 1.581 µM): 0.637 | relative viability ([4]; first compound 5 µM): 0.618

NCI-H1734
relative viability ([1]; first compound 0.05 µM): 0.682 | relative viability ([1]; first compound 0.1581 µM): 0.804 | relative viability ([1]; first compound 0.5 µM): 0.633 | relative viability ([1]; first compound 1.581 µM): 0.661 | relative viability ([1]; first compound 5 µM): 0.393 | relative viability ([2]; first compound 0.05 µM): 0.788 | relative viability ([2]; first compound 0.1581 µM): 0.75 | relative viability ([2]; first compound 0.5 µM): 0.653 | relative viability ([2]; first compound 1.581 µM): 0.586 | relative viability ([2]; first compound 5 µM): 0.348 | relative viability ([3]; first compound 0.05 µM): 0.885 | relative viability ([3]; first compound 0.1581 µM): 0.906 | relative viability ([3]; first compound 0.5 µM): 0.918 | relative viability ([3]; first compound 1.581 µM): 0.57 | relative viability ([3]; first compound 5 µM): 0.733 | relative viability ([4]; first compound 0.05 µM): 0.214 | relative viability ([4]; first compound 0.1581 µM): 0.25 | relative viability ([4]; first compound 0.5 µM): 0.284 | relative viability ([4]; first compound 1.581 µM): 0.213 | relative viability ([4]; first compound 5 µM): 0.211

NCI-H2228
relative viability ([1]; first compound 0.05 µM): 0.502 | relative viability ([1]; first compound 0.1581 µM): 0.491 | relative viability ([1]; first compound 0.5 µM): 0.404 | relative viability ([1]; first compound 1.581 µM): 0.419 | relative viability ([1]; first compound 5 µM): 0.277 | relative viability ([2]; first compound 0.05 µM): 0.636 | relative viability ([2]; first compound 0.1581 µM): 0.592 | relative viability ([2]; first compound 0.5 µM): 0.507 | relative viability ([2]; first compound 1.581 µM): 0.345 | relative viability ([2]; first compound 5 µM): 0.155 | relative viability ([3]; first compound 0.05 µM): 1.09 | relative viability ([3]; first compound 0.1581 µM): 1.12 | relative viability ([3]; first compound 0.5 µM): 1.13 | relative viability ([3]; first compound 1.581 µM): 0.64 | relative viability ([3]; first compound 5 µM): 0.481 | relative viability ([4]; first compound 0.05 µM): 0.249 | relative viability ([4]; first compound 0.1581 µM): 0.221 | relative viability ([4]; first compound 0.5 µM): 0.205 | relative viability ([4]; first compound 1.581 µM): 0.211 | relative viability ([4]; first compound 5 µM): 0.124

COR-L23
relative viability ([1]; first compound 0.05 µM): 0.594 | relative viability ([1]; first compound 0.1581 µM): 0.809 | relative viability ([1]; first compound 0.5 µM): 0.731 | relative viability ([1]; first compound 1.581 µM): 0.518 | relative viability ([1]; first compound 5 µM): 0.179 | relative viability ([2]; first compound 0.05 µM): 0.387 | relative viability ([2]; first compound 0.1581 µM): 0.273 | relative viability ([2]; first compound 0.5 µM): 0.24 | relative viability ([2]; first compound 1.581 µM): 0.187 | relative viability ([2]; first compound 5 µM): 0.117 | relative viability ([3]; first compound 0.05 µM): 0.854 | relative viability ([3]; first compound 0.1581 µM): 1.13 | relative viability ([3]; first compound 0.5 µM): 0.973 | relative viability ([3]; first compound 1.581 µM): 0.965 | relative viability ([3]; first compound 5 µM): 0.346 | relative viability ([4]; first compound 0.05 µM): 0.201 | relative viability ([4]; first compound 0.1581 µM): 0.158 | relative viability ([4]; first compound 0.5 µM): 0.211 | relative viability ([4]; first compound 1.581 µM): 0.163 | relative viability ([4]; first compound 5 µM): 0.102

NCI-H1993
relative viability ([1]; first compound 0.05 µM): 0.76 | relative viability ([1]; first compound 0.1581 µM): 0.878 | relative viability ([1]; first compound 1.581 µM): 0.933 | relative viability ([1]; first compound 5 µM): 0.702 | relative viability ([2]; first compound 0.05 µM): 0.803 | relative viability ([2]; first compound 0.1581 µM): 0.873 | relative viability ([2]; first compound 0.5 µM): 0.921 | relative viability ([2]; first compound 1.581 µM): 0.713 | relative viability ([2]; first compound 5 µM): 0.636 | relative viability ([3]; first compound 0.05 µM): 0.793 | relative viability ([3]; first compound 0.1581 µM): 0.898 | relative viability ([3]; first compound 1.581 µM): 0.873 | relative viability ([3]; first compound 5 µM): 0.831 | relative viability ([4]; first compound 0.05 µM): 0.62 | relative viability ([4]; first compound 0.1581 µM): 0.602 | relative viability ([4]; first compound 0.5 µM): 0.463 | relative viability ([4]; first compound 1.581 µM): 0.513 | relative viability ([4]; first compound 5 µM): 0.538

— the supplement of paper PMC10307832
